In PubChem BioAssay (NCI) one finds GI50 and TGI data, which are given here for 15 molecules.

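In this assay, cells in 96-well plates receive the compound at five concentrations for 48 hours. Endpoints are linearly interpolated between the surrounding concentrations. Abbreviation: GI50, concentration required for 50% inhibition of growth. TGI is the concentration that stops growth completely.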 Bounds are passed on as bounds.

Common to all, as to experiment: NCI-60 cell line screen, 48 h
In test [1] the test system is UO-31 renal.
For test [2], the system named is SF-268 CNS.
Test [3] has as its system CAKI-1 renal.
For test [4], the system named is NCI-H460 lung.
Test [5] concerns RPMI-8226 leukemia.
Test [6] deals with EKVX NSCLC.
Test [7] has as its system NCI-H226 lung.
The test system of test [8] is COLO 205 colon.
Test [9] relates to SK-MEL-28 melanoma.
In test [10] the test system is MOLT-4 leukemia.

For `CCCCCCCCCCCC[n+]1ccccc1` (tested in a mixture with another compound), the GI50 is 2.24 µM in [1]; 1.2 µM in [2]; 1.01 µM in test [3]; 1.33 µM in test [4]; 0.23 µM in test [5]; 0.428 µM in [6]. Besides, the GI50 is 1.72 µM in [7], 0.404 µM in [8], 1.35 µM in test [9] and 1.34 µM in test [10]. Also, the TGI in test [1] came out at 14.8 µM; in test [2], 3.44 µM; in test [3] it was 9.03 µM; in [4], 3.9 µM; in test [5], 1.52 µM; in test [6], 5.13 µM. Also, the TGI was 10.4 µM in [7], 1.52 µM in [8], 3.53 µM in test [9] and 4.78 µM in [10].
`CCC(=C(c1ccc(OCCCN(C)C)cc1)c1ccc(OCCCN(C)C)cc1)c1ccc(Cl)cc1`: the GI50 in test [1] was 0.269 µM; in [2] it was 1.04 µM; in [3] it was 0.56 µM; in test [4], 0.457 µM; in [5], 0.366 µM; in [6] it was 2.43 µM. For the same molecule, the GI50 is 2.65 µM in test [7], 0.399 µM in test [8], 0.324 µM in [9] and 0.379 µM in test [10]. Also, the TGI in test [1] came to 0.58 µM; in test [2], 2.72 µM; in test [3], 2.19 µM; in test [4] it was 1.23 µM; in test [5], 0.871 µM; in test [6], 4.9 µM. For the same molecule, the TGI in test [7] turned out to be 5.57 µM; in test [8], 1.04 µM; in [9], 0.652 µM; in test [10] it was 0.948 µM.
`CCCCCCCCCCN=C(c1ccc(N(C)C)cc1)c1ccc(N(C)C)cc1`: the GI50 in test [1] is 2.39 µM; in [2], 3.4 µM; in test [3], 1.43 µM; in test [4] it was 0.437 µM; in test [5] it was 0.673 µM; in [6], 1.04 µM. Further, the GI50 was 10.8 µM in test [7], 0.933 µM in test [8], 7.39 µM in test [9] and 0.416 µM in [10]. Also, the TGI in test [1] is 33 µM; in test [2], 67.9 µM; in test [3], 64.3 µM; in test [4] it was 24.5 µM; in test [5], 16.3 µM; in test [6], over 100 µM. The TGI is over 81.3 µM in test [7], 15.7 µM in test [8], over 100 µM in test [9] and 30.8 µM in [10].
For `CC(=O)OCC1OC(n2cc([N+](=O)[O-])c(=O)[nH]c2=O)C(OC(C)=O)C(OC(C)=O)C1OC(C)=O` (stereo not given), the TGI in [1], in [2], in test [3], in [4], in test [5] and in test [6] was over 100 µM in each case. In addition, the TGI in [7], in test [8], in [9] and in [10] was over 100 µM in each case.
In the case of `O=C(/C=C/c1ccccc1)CC(c1ccccc1)N1CCOCC1` (stereo not given), the GI50 in test [1] was 1.58 µM; in test [2], 5.07 µM; in test [3], 3.38 µM; in test [4], 15.5 µM; in test [5], 1.98 µM; in [6], 9.52 µM. Also, the GI50 in test [7] is 5.39 µM; in test [8], 2.45 µM; in test [9], 13.8 µM; in test [10] it was 3.12 µM. For the same molecule, the TGI in test [1] is 3.24 µM; in test [2], 19.3 µM; in test [3] it was 12.9 µM; in [4] it was 33.2 µM; in test [5], 5.21 µM; in test [6], 22.3 µM. For the same molecule, the TGI in [7] worked out at 24.2 µM; in test [8], 5.64 µM; in test [9], 30 µM; in test [10] it was 9.87 µM.
Turning to `Cc1cc2c(Br)cc(Br)c(O)c2nc1C(=O)c1ccccc1`, the TGI in test [1] is over 82.1 µM; in test [2], over 100 µM; in [3] it was over 100 µM; in [4], 30.7 µM; in test [5] it was over 100 µM; in [6], over 100 µM. Besides, the TGI in test [7] was over 79.2 µM; in [8], 55.7 µM; in test [9] it was over 100 µM; in test [10], over 100 µM.
Regarding `COc1c(Br)cc(Br)c(OC)c1-c1[nH]c(Br)c(Br)c1Br`, the TGI in test [1] turned out to be 8.73 µM; in [2] it was 15.1 µM; in test [3], 9.1 µM; in [4], 32.8 µM; in test [5], 13.2 µM; in [6] it was 21.1 µM. Further, the TGI in [7] amounted to 25.8 µM; in test [8], 28 µM; in [9], 20 µM; in test [10] it was 21.8 µM.
For `O=C1C=CC(=O)N1Nc1ccc([N+](=O)[O-])cc1[N+](=O)[O-]`, the TGI was over 100 µM in test [1]; over 100 µM in test [2]; over 71 µM in [3]; over 100 µM in test [4]; over 68.7 µM in test [5]; over 100 µM in [6]. In addition, the TGI is over 100 µM in [7], over 60.7 µM in [8], over 59.2 µM in [9] and over 75.2 µM in test [10].
With `O=C1C=C(O)c2[nH]c(=O)ccc2C1=O`, the TGI in [1], in test [2], in test [3], in test [4], in test [5] and in [6] was over 100 µM in each case. Moreover, the TGI in test [7], in test [8], in test [9] and in [10] was over 100 µM each time.
In the case of `Cc1nnc(N/N=C(/C(=O)C(C#N)c2ccccc2)C(C#N)c2ccccc2)n1N` (stereo not given), the TGI in test [1] was over 56.5 µM; in test [2] it was over 61.3 µM; in test [3], over 56 µM; in [4] it was 12.6 µM; in [5], 85.8 µM; in [6] it was over 100 µM. In addition, the TGI in test [7] is over 61.7 µM; in test [8], 14 µM; in test [9] it was 36.1 µM; in [10], 9.28 µM.
`O=c1ncccn1C1C=C(CO)C(O)C1O` (stereo not given): the TGI in [1], in test [2], in test [3], in test [4], in [5] and in test [6] was over 50 µM in each case. The TGI in [7], in [8], in test [9] and in [10] was over 50 µM in each case.
With `NC(=O)C1(N2CCCCC2)CCN(CCCC(=O)c2ccc(F)cc2)CC1`, the GI50 was 17.2 µM in test [1]; 2.6 µM in [2]; 26.6 µM in [3]; 2.7 µM in test [4]; 0.208 µM in test [5]; 6.01 µM in test [6]. In addition, the GI50 is 2.34 µM in [7], 0.715 µM in test [8], 1.08 µM in test [9] and 1.16 µM in [10]. Also, the TGI in test [1] is over 100 µM; in [2], over 70.9 µM; in test [3], over 100 µM; in test [4], over 100 µM; in test [5], over 100 µM; in test [6], over 100 µM. Further, the TGI was 8.81 µM in [7], 6.89 µM in [8], over 100 µM in test [9] and over 81.6 µM in [10].
As to `CNC(SC)=C1C(=O)OC(C)(C)OC1=O`, the TGI in [1], in test [2], in [3], in [4], in test [5] and in [6] was over 100 µM each time. Also, the TGI in test [7], in test [8], in test [9] and in test [10] was over 100 µM throughout.
For `Cc1ccc2c(c1)Sc1ccc(N=NN(C)C)cc1N2C`, the TGI in test [1], in test [2], in test [3], in [4], in [5] and in test [6] was over 100 µM in each case. Further, the TGI in test [7], in [8], in [9] and in test [10] was over 100 µM in each case.
For `CC(=O)NNc1nc(C)c(C(=O)NNC(=O)C(=O)Nc2nc3ccc([N+](=O)[O-])cc3s2)s1`, the TGI in test [1] was over 100 µM; in test [2] it was over 100 µM; in test [3] it was over 92.6 µM; in [4], over 100 µM; in test [5] it was over 80.5 µM; in test [6] it was over 100 µM. In addition, the TGI in test [7], in test [8], in [9] and in [10] was over 100 µM each time.
